Marks after values point to notes of the source that are not given here.
What was measured:
Format in all cases: in vivo, human
[1] = test system: Subjects with a DSM-IV diagnosis of schizophrenia; assay: PANSS and CGI efficacy assessment, double-blind placebo-controlled crossover study of adjunctive intranasal oxytocin; settings: for CGI-Severity score: Baseline of oxytocin arm (CGI-Severity, not CGI-Improvement); for CGI-I Cohen's d / PANSS Negative Cohen's d / PANSS Total Cohen's d: Week 3, oxytocin vs placebo; for PANSS Total Cohen's d: 0.2 small, 0.5 medium, 0.8 large
From the text: Participants. Subjects with a DSM-IV diagnosis of schizophrenia, confirmed by SCID interview, were enrolled in this double-blind, placebo-controlled, crossover study. Other main inclusion criteria were: minimum 18 years of age, treatment with 1 or 2 approved antipsychotic medication with no dose changes in the previous four weeks, Positive and Negative Syndrome Scale (PANSS) score of at least 55 and a Clinical Global Impressions-Severity (CGI-S) scale score of at least 4 (moderately ill) at randomization. Because it was hypothesized that oxytocin may improve paranoia due to its pro-trust effect, subjects were also required to have a score of at least 4 (moderate) on item 6 (suspiciousness/persecution) of the PANSS. This study was approved by the UCSD IRB and written informed consent was obtained from all subjects.
(§1) Study Drugs. Subjects were maintained on their pre-study antipsychotic medication regimen and doses were not changed during the study. Subjects received 3-weeks of daily intranasal oxytocin (Syntocinin, Novartis, Basel Switzerland) and 3-weeks of daily intranasal placebo. Oxytocin was dosed at 20 IU (5 sprays) twice a day for the first week and 40 IU (10 sprays) twice a day thereafter. Order of treatment (placebo-oxytocin or oxytocin-placebo) was randomly assigned using a computer generated random sequence.
Efficacy and Safety assessments. Subjects, raters and study staff enrolling patients were blinded to treatment condition. The total study duration for each individual subject was 7 weeks. Subjects were evaluated […]. Visit 1 and 5 were baseline assessments and visits 2, 3, 4 and 6, 7, 8 were the weekly visits for the two treatment periods, respectively. Washout occurred in the week between visit 4 and 5. At each visit raters assessed subjects utilizing the PANSS, CGI-S and CGI-Improvement (CGI-I). PANSS-total at the final visit of each treatment period was chosen a′ priori as the primary efficacy endpoint.
(§2) Safety was assessed at each visit by a medical exam, and assessments of reported adverse events. In addition, urine was collected for osmolality testing and blood was drawn at each visit and analyzed at UCSD laboratories for basic chemistry analysis. Statistical Methods. Data from all subjects who received at least one dose and one assessment in both treatment periods (intent-to-treat population) were subjected to analysisusing SPSS version 11.0. Baseline scores for both drug treatments were compared for similarity using paired t-test. The change in baseline scores from period 1 to period 2 was compared among the placebo-oxytocin versus oxytocin-placebo group using a two-sample t-test to assess for period carry-over effects. PANNS and CGI data were subjected to repeated measures ANOVA with drug and treatment-week as repeated measures factors. Treatment sequence was included as a between-subjects factor to evaluate possible period and carry-over effects. Paired t-tests, corrected for multiple-comparisons using Bonferoni method were used to compare placebo and oxytocin scores at endpoint and each the other assessment visits. Cohen's d statistic was calculated for each measure at endpoint.

[2] = test system: Subjects with a DSM-IV diagnosis of schizophrenia; assay: Letter Number Sequencing subtest (LNS) of WAIS-III; settings: after 3 weeks of intranasal oxytocin
From the text: (§3) Participants. Subjects with a DSM-IV diagnosis of schizophrenia, confirmed by SCID interview, were enrolled in a double-blind, placebo-controlled, crossover study. Other main inclusion criteria were: minimum 18 years of age, treatment with 1 or 2 approved antipsychotic medication with no dose changes in the previous four weeks, a minimum Positive and Negative Syndrome Scale (PANSS) score of at least 55 with a minimum score of 4 and a Clinical Global Impressions-Severity (CGI-S) scale score of at least 4 (moderately ill) at randomization.
Study Drugs. Subjects were maintained on a stable dose of their pre-study antipsychotic medication regimen. In addition to their antipsychotics, subjects received 3-weeks of daily intranasal oxytocin (Syntocinin, Novartis, Basel Switzerland) dosed 20 IU twice a day for the first week and then 40 IU twice a day for weeks two and three, and 3-weeks of daily intranasal placebo. […]
The Letter Number Sequencing subtest (LNS) is a component of the larger WAIS-III and is used to measure attention and working memory. […] In each trial of the LNS, a list of letters and numbers are read in a mixed order to participants; participants are asked to recall first the digits and then the letters in the order they were presented. […] Scores are calculated by totaling the correct responses for each length. […]

[3] = test system: Subjects with a DSM-IV diagnosis of schizophrenia; assay: California Verbal Learning Test (CVLT-II)
From the text: as §3
Study Drugs. Subjects were maintained on a stable dose of their pre-study antipsychotic medication regimen. In addition to their antipsychotics, subjects received 3-weeks of daily intranasal oxytocin (Syntocinin, Novartis, Basel Switzerland) dosed 20 IU twice a day for the first week and then 40 IU twice a day for weeks two and three, and 3-weeks of daily intranasal placebo. Order of treatment (placebo-oxytocin or oxytocin-placebo) was randomly assigned using a computer generated random sequence.
Safety and efficacy assessments. Subjects, raters, and study staff enrolling patients were blinded to treatment condition. The total study duration for each individual subject was 7 weeks, which included a baseline visit (V1), a three-week initial treatment period, a 1 week washout (between V4 and V5), a repeat baseline visit, and a three-week crossover treatment period. Subjects received the cognitive tests a total of 3 times: at baseline visits (V1, and after 3 weeks of treatment with placebo and oxytocin (V4, V7).
The CVLT-II is a commonly-used test of new learning and declarative verbal memory, which closely resembles the HVLT (Hopkins Verbal Learning Test), a part of the standardized MATRICS cognitive battery, now used to measure cognitive changes in Schizophrenia clinical trials. In the CVLT-II, lists of 16 words (List A) from various semantic categories are read over 5 trials. After each trial, subject is asked to recall as many words as they can (free recall). An interference list (List B) is then presented. Free and cued recall of List A is measured immediately following (short delay) and 20 minutes (long delay). At the end of the test, a 44 word recognition task is performed with subjects identifying target words among 28 distractors. The CVLT's format allows assessment of multiple aspects of cognition: overall recall ability, rate of learning over sequential trials, ability to retain learned material, and item recognition.
For each subtest a two-factor repeated ANOVA with drug treatment (placebo/oxytocin) and order of treatment as factors was conducted.

[4] = Blood chemistry analysis and urine osmolality at endpoint
Procedure: as §1, §2

[5] = test system: Subjects with a DSM-IV diagnosis of schizophrenia; assay: Reported adverse events in the crossover study
Procedure: as §1, §2

[6] = Baseline of oxytocin arm, mean (SD)
[7] = Week 1, intranasal 20 IU twice a day, mean (SD)
[8] = Week 2, intranasal 40 IU twice a day, mean (SD)
[9] = Week 3, intranasal 40 IU twice a day, mean (SD)
[10] = after 3 weeks of intranasal oxytocin, Mean (S.E.M.)
[11] = 3 weeks intranasal oxytocin, 15 completers

CC[C@H](C)[C@@H]1NC(=O)[C@H](Cc2ccc(O)cc2)NC(=O)[C@@H](N)CSSC[C@@H](C(=O)N2CCC[C@H]2C(=O)N[C@@H](CC(C)C)C(=O)NCC(N)=O)NC(=O)[C@H](CC(N)=O)NC(=O)[C@H](CCC(N)=O)NC1=O [Oxytocin, Cys-Tyr-Ile-Gln-Asn-Cys-Pro-Leu-Gly]
reduction on the PANSS-total ([1]; 3 weeks of treatment vs baseline (placebo 3.0 points)): 7.9 point | CGI-Severity score ([1]; mean (SD)): 4.67 (0.61)^ | CGI-Severity score ([1]; mean (SD), listed as oxytocin): 4.67±0.74 | PANSS Gen. Psy. score [1, 6]: 38.8 (7.6) | PANSS Negative score [1, 6]: 20.2 (4.7) | PANSS Positive score [1, 6]: 21.7 (4.1) | PANSS Total score ([1]; Baseline of oxytocin arm, mean (standard deviation)): 81.5 (12.4) | PANSS Total score ([1]; Baseline of oxytocin arm, mean (standard deviation), listed as oxytocin): 81.4±12.43 | PANSS Total score ([1]; Week 1, intranasal 20 IU twice a day, adjunctive to antipsychotics, mean (SD)): 76.3 (11.3) | CGI-I score [1, 7]: 3.33 (0.62) | PANSS Gen. Psy. score [1, 7]: 36.4 (8.1) | PANSS Negative score [1, 7]: 20.1 (4.8) | PANSS Positive score [1, 7]: 20.6 (4.5) | PANSS Total score ([1]; Week 2, intranasal 40 IU twice a day, adjunctive to antipsychotics, mean (SD)): 76.9 (13.2) | CGI-I score [1, 8]: 3.33 (1.20) | PANSS Gen. Psy. score [1, 8]: 36.3 (8.2) | PANSS Negative score [1, 8]: 19.7 (4.3) | PANSS Positive score [1, 8]: 20.5 (4.6) | PANSS Total score ([1]; Week 3 (endpoint), intranasal 40 IU twice a day, adjunctive to antipsychotics, mean (SD)): 73.6 (13.6)** | CGI-I Cohen's d [1]: [0.74] | PANSS Negative Cohen's d [1]: [0.50] | PANSS Total Cohen's d [1]: [0.43] | PANSS Total Cohen's d ([1]; listed as oxytocin): 0.43 | CGI-I Cohen's d ([1]; listed as oxytocin): 0.74 | PANSS Negative Cohen's d ([1]; listed as oxytocin): 0.50 | CGI-I score [1, 9]: 3.07 (0.70)** | PANSS Gen. Psy. score [1, 9]: 34.8 (6.9) | PANSS Negative score [1, 9]: 18.5 (4.5)* | PANSS Positive score [1, 9]: 19.9 (5.2)** | PANSS general psychopathology subscale, oxytocin versus placebo ([1]; any time point): not significantly different | PANSS-total difference oxytocin versus placebo ([1]; baseline): 0.60 | PANSS-total scores, oxytocin versus placebo ([1]; endpoint (week 3) visit, p<0.001): significantly lower | PANSS-total difference oxytocin versus placebo ([1]; endpoint (week 3), p<0.001): 5.46 | PANSS-total difference oxytocin versus placebo ([1]; week 1): 0.60 | PANSS-total difference oxytocin versus placebo ([1]; week 2): 1.20 | CGI-I, oxytocin versus placebo ([1]; week 3, P<0.001): significantly lower | PANSS positive subscale scores, oxytocin versus placebo ([1]; week 3, P=0.006): significantly lower | PANSS negative subscale scores, oxytocin versus placebo ([1]; week 3, p=0.023): significantly lower | scores on the LNS, oxytocin versus placebo [2]: no significant difference | CVLT Long Delay Cued Recall Raw [3, 10]: 11.87 (0.97) | CVLT Long Delay Free Recall Raw [3, 10]: 10.87 (0.87) | CVLT Short Delay Cued Recall Raw [3, 10]: 12.00 (0.79) | CVLT Short Delay Free Recall Raw [3, 10]: 10.60 (1.03) | CVLT Total Intrusions Raw [3, 10]: 4.93 (1.90) | CVLT Total Recall Discriminability Raw [3, 10]: 2.22 (0.19) | CVLT Total Recognition Discriminability Raw [3, 10]: 2.97 (0.28) | CVLT Total Repetitions Raw [3, 10]: 13.67 (5.44) | CVLT Trials 1-5 Raw [3, 10]: 55.67 (3.65) | CVLT subscale scores, oxytocin versus placebo ([3]; all 9 subscales, after 3 weeks): scored higher | measured blood chemistry or urine osmolality, oxytocin versus placebo ([4]; at endpoint): no significant differences | BUN ([4]; blood, at endpoint): 10.8 mg/dL | Bicarb. ([4]; blood, at endpoint): 27.9 mmol/L | Calcium ([4]; blood, at endpoint): 9.3 mg/dL | Chloride ([4]; blood, at endpoint): 101.1 mmol/L | Creatinine ([4]; blood, at endpoint): 0.9 mg/dL | Potassium ([4]; blood, at endpoint): 4.4 mmol/L | Sodium ([4]; blood, at endpoint): 138.5 mmol/L | Glucose ([4]; blood, at endpoint (week 3)): 112.5 mg/dL | blood glucose levels compared to placebo ([4]; intranasal administration): reduction in blood glucose levels | Urine Osmolality ([4]; urine, at endpoint): 607.9 mOsm/kg | rates of reported adverse effects, oxytocin compared to placebo ([5]; 3 weeks each treatment): no significant differences | serious adverse events reported during the study ([5]; 3 weeks intranasal oxytocin twice daily): no serious adverse events | Dizzy or lightheaded, subjects reporting [5, 11]: 26.7% | Dyspepsia or nausea, subjects reporting [5, 11]: 26.7% | Headache, subjects reporting [5, 11]: 26.7% | Lethargy, subjects reporting [5, 11]: 0.0% | Nasal Irritation, subjects reporting [5, 11]: 26.7% | Sleep impairment, subjects reporting [5, 11]: 33.3% | tolerability ([5]; given twice daily for three weeks): well-tolerated

— US10314885B2, “Oxytocin treatment to modify blood glucose and treat metabolic disease” (The Regents of the University of California, priority 2010, dated 2019)
